Measured values from patent publication US11412737B2, “Mixtures of beflubutamid or optically enriched forms thereof with a second herbicide” (FMC Corporation, priority 2016, dated 2022).

Key:
[1] = system: Common lambsquarters (CHEAL); test: pre-emergence test, weed control; format: in vivo, Chenopodium album; conditions: pre-emergent, 28 DAT; BFL at 125 g/ha, DCI at 125 g/ha, combination of both
Summary of the method: (§1)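 Seeds sown in top-soil flats and watered, then sprayed pre-emergence at 30 gallons per acre from a nozzle 10.5 inches above soil; flats kept in the greenhouse with regular watering and fertilizing. Percent control (0–100 scale versus untreated flats) scored at 21 DAT for wheat and 28 DAT for all species, averaged over replicates.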

Palmer amaranth (AMAPA) = test: pre-emergence test, weed control; format: in vivo, Amaranthus palmeri; conditions: pre-emergent, 28 DAT; for percentage of weed control, AMAPA: (−)-BFL >95% e.e., rate g ai/ha by row: r6 62, r7 125, r8 125, r9 250, r10 445, r11 890, r12 45, r13 90, r14 62+125, r15 125+125, r16 62+250, r17 125+250, r18 62+445, r19 125+445, r20 62+890, r21 125+890, r22 62+45, r23 125+45, r24 62+90, r25 125+90
Summary of the method: as §1

Annual bluegrass (POAAN) = test: post-emergence test, weed control; format: in vivo, Poa annua; conditions: post-emergent, 28 DAT, height 1-2 cm; rate g ai/ha by row: r7 94, r8 125, r9 188, r10 125, r11 250, r12 94+125, r13 125+125, r14 188+125, r15 94+250, r16 125+250, r17 188+250
Method: (§2) Test compositions containing the test compounds were diluted with water to provide the appropriate test rate concentrations.
(§3) For post-emergence testing, seeds of each species for each rate of application of each herbicide solution were planted in 7.5 cm×7.5 cm plastic pots filled with potting soil. The seeds were germinated and the resulting plants were allowed to grow in a greenhouse until they reached a growth stage, such as height, suitable for testing. Treatments were applied using compressed air in a track spray chamber at 30 gallons/acre (280 L/ha) using a TeeJet 8001E nozzle at 40 psi (2.76 bars). Pots of post-emergent treated plants were returned to the greenhouse and not watered for 24 hours after treatment. Thereafter they were regularly watered and fertilized for the duration of the test.
(§4) The control of weeds was evaluated in each experimental test at 21 for wheat and 28 days after treatment (DAT) for all species. Data were analyzed using Minitab software at 95% confidence interval. The results, shown as an average of the replications, were compared with results observed in untreated control flats in the same tests. Percent control was determined by a method similar to the 0 to 100 rating system disclosed in “Research Methods in Weed Science,” 2nd ed., B. Truelove, Ed.; Southern Weed Science Society; Auburn University, Auburn, Ala., 1977. The rating system is as follows in Table 1.

Barnyardgrass (ECHCG) = test: post-emergence test, weed control; format: in vivo, Echinochloa crus-galli; conditions: post-emergent, 28 DAT; for percentage of weed control, ECHCG: height 8-9 cm, rate g ai/ha by row: r7 94, r8 125, r9 188, r10 125, r11 250, r12 94+125, r13 125+125, r14 188+125, r15 94+250, r16 125+250, r17 188+250
Method: as §2
as §3, with “Treatments were applied using compressed air in a track spray chamber at 30 gallons/acre (280 L/ha) using a TeeJet 8001E nozzle at 40 psi (2.76 bars).” left out
The control of weeds was evaluated in each experimental test at 21 for wheat and 28 days after treatment (DAT) for all species. […] The rating system is as follows in Table 1.

Italian ryegrass (LOLMU) = test: post-emergence test, weed control; format: in vivo, Lolium perenne. multiflorum; conditions: post-emergent, 28 DAT; for percentage of weed control, LOLMU: height 5-6 cm, rate g ai/ha by row: r25 94, r26 125, r27 188, r28 125, r29 250, r30 94+125, r31 125+125, r32 188+125, r33 94+250, r34 125+250, r35 188+250; for control of Italian rygrass (LOLMU): combination of both
Method: as §2, §3, §4

[2] = system: Littleseed canarygrass (PHAMI); test: post-emergence test, weed control; format: in vivo, Phalaris minor; conditions: post-emergent, 28 DAT, height 7-8 cm, rate g ai/ha by row: r25 94, r26 125, r27 188, r28 125, r29 250, r30 94+125, r31 125+125, r32 188+125, r33 94+250, r34 125+250, r35 188+250
Method: as §2, §3, §4

Shattercane (SOBIA) = test: post-emergence test, weed control; format: in vivo; conditions: post-emergent, 28 DAT, height 8 cm, rate g ai/ha by row: r25 94, r26 125, r27 188, r28 125, r29 250, r30 94+125, r31 125+125, r32 188+125, r33 94+250, r34 125+250, r35 188+250
Method: as §2, §3, §4

Wild oat (AVEFA) = test: post-emergence test, weed control; format: in vivo, Avena fatua; conditions: post-emergent, 28 DAT; for percentage of weed control, AVEFA: height 11 cm, rate g ai/ha by row: r25 94, r26 125, r27 188, r28 125, r29 250, r30 94+125, r31 125+125, r32 188+125, r33 94+250, r34 125+250, r35 188+250; for control of wild oats (AVEFA): DCI at 250 g/ha, combination of both
Method: as §2, §3, §4

Silky windgrass (APSEV) = test: post-emergence test, weed control; format: in vivo; conditions: post-emergent, 28 DAT, height 1-1.5 cm, rate g ai/ha by row: r25 94, r26 125, r27 188, r28 125, r29 250, r30 94+125, r31 125+125, r32 188+125, r33 94+250, r34 125+250, r35 188+250
[3] = BFL at 125 g/ha, DCI at 125 g/ha, combination of both

CC1(C)CON(Cc2ccc(Cl)cc2Cl)C1=O [DCI, 2-(2,4-dichlorophenyl)methyl-4,4-dimethyl-3-isoxazolidinone]
control of lambsquarters (CHEAL) [1]: 24%
percentage of weed control, AMAPA (Palmer amaranth (AMAPA); 125 g ai/ha): 94%
percentage of weed control, AMAPA (Palmer amaranth (AMAPA); 250 g ai/ha): 99%
control of Palmer amaranth (AMAPA) (Palmer amaranth (AMAPA); [3]): 30%
percentage of weed control, POAAN (Annual bluegrass (POAAN)): 0%
percentage of weed control, ECHCG (Barnyardgrass (ECHCG); 125 g ai/ha): 74%
percentage of weed control, ECHCG (Barnyardgrass (ECHCG); 250 g ai/ha): 69%
control of barnyardgrass (ECHCG) (Barnyardgrass (ECHCG); [3]): 74%
percentage of weed control, LOLMU (Italian ryegrass (LOLMU); 125 g ai/ha): 0%
percentage of weed control, LOLMU (Italian ryegrass (LOLMU); 250 g ai/ha): 9%
control of Italian rygrass (LOLMU) (Italian ryegrass (LOLMU); BFL at 188 g/ha, DCI at 125 g/ha): 0%
control of Italian rygrass (LOLMU) (Italian ryegrass (LOLMU); DCI at 250 g/ha, BFL at 125 g/ha): 9%
percentage of weed control, PHAMI ([2]; 125 g ai/ha): 4%
percentage of weed control, PHAMI ([2]; 250 g ai/ha): 2%
percentage of weed control, SOBIA (Shattercane (SOBIA); 125 g ai/ha): 1%
percentage of weed control, SOBIA (Shattercane (SOBIA); 250 g ai/ha): 4%
percentage of weed control, AVEFA (Wild oat (AVEFA); 125 g ai/ha): 60%
percentage of weed control, AVEFA (Wild oat (AVEFA); 250 g ai/ha): 61%
control of wild oats (AVEFA) (Wild oat (AVEFA); BFL at 125 g/ha): 61%
control of wild oats (AVEFA) (Wild oat (AVEFA); BFL at 188 g/ha): 61%
percentage of weed control, APSEV (Silky windgrass (APSEV); 125 g ai/ha): 5%
percentage of weed control, APSEV (Silky windgrass (APSEV); 250 g ai/ha): 0%
